# Data: the NIST ThermoML archive (doi:10.1016/j.jct.2004.12.001)
# ± gives the expanded uncertainty stated by the source.
# Experiments:
# [1] = 303.15 K, Liquid; for mass density: 101 kPa; for speed of sound: 101.33 kPa, Frequency=2 MHz
# [2] = xn = mol fraction of the nth substance listed; conditions: 303.15 K, 101 kPa, Liquid; for speed of sound: Frequency=2 MHz
compound,measurement,setting,value
c1ccccc1 [benzene],mass density,[1],872 ± 9 kg/m3
same,speed of sound,[1],1257 ± 11 m/s
c1ccccc1 [benzene] + CC(CC(C)(C)C)CP(=O)(O)CC(C)CC(C)(C)C,speed of sound,[2]; x2 = 0,1257 ± 11 m/s
same,mass density,[2]; x2 = 0,872 ± 9 kg/m3
"CC(CC(C)(C)C)CP(=O)(O)CC(C)CC(C)(C)C (stereo unspecified) [bis-(2,4,4-trimethylpentyl) phosphinic acid]",mass density,[1],924.7 ± 12 kg/m3
same,speed of sound,[1],1290.4 ± 17 m/s
"CC(CC(C)(C)C)CP(=O)(O)CC(C)CC(C)(C)C (stereo unspecified) [bis-(2,4,4-trimethylpentyl) phosphinic acid] + Cc1ccccc1",speed of sound,[2]; x1 = 0.0781,1266.5 ± 11 m/s
same,speed of sound,[2]; x1 = 0.1268,1266.9 ± 11 m/s
same,speed of sound,[2]; x1 = 0.1843,1267.5 ± 11 m/s
same,speed of sound,[2]; x1 = 0.2532,1268.2 ± 11 m/s
same,speed of sound,[2]; x1 = 0.3371,1269.2 ± 12 m/s
same,speed of sound,[2]; x1 = 0.4416,1274.6 ± 12 m/s
same,speed of sound,[2]; x1 = 0.5755,1278 ± 13 m/s
same,speed of sound,[2]; x1 = 0.7531,1284 ± 15 m/s
same,speed of sound,[2]; x1 = 1,1290.4 ± 17 m/s
same,mass density,[2]; x1 = 0.0781,875.6 ± 9.1 kg/m3
same,mass density,[2]; x1 = 0.1268,882.5 ± 9.2 kg/m3
same,mass density,[2]; x1 = 0.1843,888 ± 9.3 kg/m3
same,mass density,[2]; x1 = 0.2532,893.8 ± 9.4 kg/m3
same,mass density,[2]; x1 = 0.3371,899.7 ± 9.6 kg/m3
same,mass density,[2]; x1 = 0.4416,900.9 ± 9.8 kg/m3
same,mass density,[2]; x1 = 0.5755,906.4 ± 10 kg/m3
same,mass density,[2]; x1 = 0.7531,913.1 ± 11 kg/m3
same,mass density,[2]; x1 = 1,924.7 ± 12 kg/m3
"CC(CC(C)(C)C)CP(=O)(O)CC(C)CC(C)(C)C (stereo unspecified) [bis-(2,4,4-trimethylpentyl) phosphinic acid] + c1ccccc1",speed of sound,[2]; x1 = 0.0666,1252.2 ± 11 m/s
same,speed of sound,[2]; x1 = 0.109,1255.2 ± 11 m/s
same,speed of sound,[2]; x1 = 0.1599,1258.1 ± 11 m/s
same,speed of sound,[2]; x1 = 0.2222,1259.1 ± 11 m/s
same,speed of sound,[2]; x1 = 0.2999,1261.3 ± 12 m/s
same,speed of sound,[2]; x1 = 0.3999,1263.2 ± 12 m/s
same,speed of sound,[2]; x1 = 0.5332,1266.8 ± 13 m/s
same,speed of sound,[2]; x1 = 0.7199,1274.3 ± 14 m/s
same,speed of sound,[2]; x1 = 1,1290.4 ± 17 m/s
same,mass density,[2]; x1 = 0.0666,886.8 ± 9.2 kg/m3
same,mass density,[2]; x1 = 0.109,891.9 ± 9.3 kg/m3
same,mass density,[2]; x1 = 0.1599,895.6 ± 9.4 kg/m3
same,mass density,[2]; x1 = 0.2222,901.1 ± 9.5 kg/m3
same,mass density,[2]; x1 = 0.2999,904.9 ± 9.6 kg/m3
same,mass density,[2]; x1 = 0.3999,908.4 ± 9.8 kg/m3
same,mass density,[2]; x1 = 0.5332,912.3 ± 10 kg/m3
same,mass density,[2]; x1 = 0.7199,915.3 ± 11 kg/m3
same,mass density,[2]; x1 = 1,924.7 ± 12 kg/m3
Cc1ccccc1 [toluene],mass density,[1],866.7 ± 8.9 kg/m3
same,speed of sound,[1],1271.9 ± 11 m/s
Cc1ccccc1 [toluene] + CC(CC(C)(C)C)CP(=O)(O)CC(C)CC(C)(C)C,speed of sound,[2]; x2 = 0,1271.9 ± 11 m/s
same,mass density,[2]; x2 = 0,866.7 ± 8.9 kg/m3
